{
  "source": "paper PMC10648877",
  "about": "“Novel Substituted Azoloazines with Anticoagulant Activity” (International Journal of Molecular Sciences, 2023)",
  "key": {"coagulograms of rats [1]": {"test_system": "coagulograms of rats", "test": "Prothrombin time after single intragastric administration, rats with hypercytokinemia (LPS)", "format": "in vivo, rat", "method": "(§1) Distilled water was used as a solvent. In all experiments, control animals were injected with an equivalent volume of a vehicle. The reference drug dabigatran etexilate was administered to rats 2 h before the study at a 12 mg/kg dose (equivalent to the human dose, taking into account the interspecies conversion factor).\n(§2) Coagulogram parameters of platelet-poor plasma were measured with a SOLAR coagulometer according to the methods described above.\n(§3) Hypercytokinemia conditions were modeled by an intravenous injection of S. typhimurium LPS (Sigma Aldrich, St. Louis, MO, USA) at a final dose of 2 mg/kg into the tail vein of the rats 2 h before the administration of the substances. The evaluation of anticoagulant activity was conducted according to the methods described above."}, "LPS-treated PPP [2]": {"test_system": "LPS-treated PPP", "test": "Thrombin time, rabbit blood treated with LPS in vitro (hypercytokinemia)", "format": "biochemical", "details": "for Δ % of Thrombin Time Prolongation Relative To Control + LPS: with LPS", "method": "(§4) Hypercytokinemia conditions were modeled by incubation of whole blood with S. typhimurium LPS (Sigma Aldrich, St. Louis, MO, USA) at a final concentration of 20 ng/mL and subsequent preparation of PPP.\n(§5) The calculation of EC50 (effective concentration that prolongs the time of clot formation by 50%) was performed using linear regression analysis."}, "coagulograms of rats [3]": {"test_system": "coagulograms of rats", "test": "Thrombin time after single intragastric administration, rats without hypercytokinemia", "format": "in vivo, rat", "details": "dabigatran etexilate 12 mg/kg", "method": "as §1, with “factor). Compound 5d was administered to rats 2 h before the study in a 5.5 mg/kg dose, equimolar to the dose of dabigatran etexilate.” for “factor).”\n(§6) To stabilize the blood, a 3.8% aqueous solution of sodium citrate (pH 6.0) was used in a ratio of 9:1. Coagulogram parameters of platelet-poor plasma were measured with a SOLAR coagulometer according to the methods described above."}, "[4]": {"test_system": "platelet-poor plasma (PPP)", "test": "Prothrombin time (PT), rabbit blood coagulogram in vitro", "details": "100 μM; for PT: M ± m, n = 6"}, "[5]": {"test_system": "platelet-poor plasma (PPP)", "test": "Activated partial thromboplastin time (APTT), rabbit blood coagulogram in vitro", "format": "biochemical", "details": "100 μM; for APTT: M ± m, n = 6", "procedure": "Test compounds and the reference drug were evaluated at a concentration of 100 μM. Effect on rabbit blood coagulograms in vitro was determined chronometrically with a SOLAR hemocoagulometer (Minsk, Belarus) using commercial kits (Technology-Standard, Barnaul, Russia) as per the manufacturer’s instructions. The following parameters were determined: activated partial thromboplastin time, thrombin time, and prothrombin time."}, "coagulograms of rats [6]": {"test_system": "coagulograms of rats", "test": "Thrombin time after single intragastric administration, rats with hypercytokinemia (LPS)", "format": "in vivo, rat", "method": "as §1, with “factor). Compound 5d was administered to rats 2 h before the study in a 5.5 mg/kg dose, equimolar to the dose of dabigatran etexilate.” for “factor).”\nas §6, §3"}, "LPS-treated PPP [7]": {"test_system": "LPS-treated PPP", "test": "APTT, rabbit blood treated with LPS in vitro (hypercytokinemia)", "format": "biochemical", "details": "100 μM", "method": "as §4"}, "coagulograms of rats [8]": {"test_system": "coagulograms of rats", "test": "Prothrombin time after single intragastric administration, rats without hypercytokinemia", "format": "in vivo, rat", "method": "as §1, §2"}, "[9]": {"test_system": "platelet-poor plasma (PPP)", "test": "Thrombin time (TT), rabbit blood coagulogram in vitro", "format": "biochemical", "details": "for TT: M ± m, n = 6"}, "LPS-treated PPP [10]": {"test_system": "LPS-treated PPP", "test": "Prothrombin time, rabbit blood treated with LPS in vitro (hypercytokinemia)", "format": "biochemical", "details": "100 μM", "method": "as §4"}, "[11]": {"test_system": "platelet-poor plasma (PPP)", "test": "Ecarin clotting time in vitro", "format": "biochemical", "method": "The ecarin clotting time was designed for the determination of antithrombin anticoagulant activity in platelet-poor plasma. Venous blood was collected into a 15 mL Falcon type plastic tube with 3.8% sodium citrate solution (0.5 mL of sodium citrate per 5 mL of blood), centrifuged on a CM-6M centrifuge (Elmi, Riga, Latvia) at room temperature from 18 to 25 °C for 15 min at 3000 rpm (1200× g). The obtained plasma was withdrawn using an automatic pipette and transferred to a separate clean, dry plastic tube. After that, the obtained plasma was recentrifuged under the same conditions and the upper third of the plasma was taken for analysis.\nThe ecarin stock solution (STA-ECT, Stago, Düsseldorf, Germany) was prepared according to the manufacturer’s instructions and diluted to 4 units/mL with HEPES-buffered saline (0.2 M) containing 0.025 M calcium chloride.\nThe tested samples were investigated in the concentration range from 100 to 1 μM for IC50 determination.\nPrepared reagents and platelet-poor plasma were heated to 37 °C. The assay was performed on a Solar CGL2120 coagulometer (Belarus), adding 50 µL of the reagent ecarin to 100 µL of PPP and recording the clotting time.\nas §5"}, "coagulograms of rats [12]": {"test_system": "coagulograms of rats", "test": "APTT after single intragastric administration, rats with hypercytokinemia (LPS)", "format": "in vivo, rat", "details": "dabigatran etexilate 12 mg/kg", "method": "as §1, with “factor). Compound 5d was administered to rats 2 h before the study in a 5.5 mg/kg dose, equimolar to the dose of dabigatran etexilate.” for “factor).”\nas §6, §3"}, "coagulograms of rats [13]": {"test_system": "coagulograms of rats", "test": "APTT after single intragastric administration, rats without hypercytokinemia", "format": "in vivo, rat", "details": "dabigatran etexilate 12 mg/kg", "method": "as §1, with “factor). Compound 5d was administered to rats 2 h before the study in a 5.5 mg/kg dose, equimolar to the dose of dabigatran etexilate.” for “factor).”\nas §6"}, "[14]": {"details": "rats with hypercytokinemia (LPS 2 mg/kg i.v.), single intragastric dose, 2 h, dabigatran etexilate 12 mg/kg, 5d 5.5 mg/kg"}, "[15]": {"details": "intact rats, 2 h after intragastric administration, 5d 5.5 mg/kg"}, "[16]": {"details": "rats without hypercytokinemia, single intragastric dose, 2 h, 5d 5.5 mg/kg (equimolar)"}},
  "note": "“And” between values parts separate entries of the source, which are not always exact repeats. Equal values may be shown once.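 Throughout, for increase of APTT relative to the control: clotting time read chronometrically on a hemocoagulometer with commercial reagent kits, one of several coagulogram parameters alongside thrombin and prothrombin time.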",
  "data": [
    {"smiles": "CCCCCCOC(=O)N=C(N)c1ccc(NCc2nc3cc(C(=O)N(CCC(=O)OCC)c4ccccn4)ccc3n2C)cc1", "note": "[Dabigatran etexilate, reference compound]", "values": [
      {"measurement": "PT", "setting": "coagulograms of rats [1]; [14]", "result": "28.1 ± 1.0", "unit": "s"},
      {"measurement": "effect on prothrombin time", "setting": "coagulograms of rats [1]; rats with systemic inflammatory reaction (LPS)", "result": "neither the test compound nor dabigatran etexilate had an effect"},
      {"measurement": "Δ % of Thrombin Time Prolongation Relative To Control + LPS", "setting": "LPS-treated PPP [2]; 1 μM", "result": "51.7% and 51.7 ± 0.5%"},
      {"measurement": "Δ % of Thrombin Time Prolongation Relative To Control + LPS", "setting": "LPS-treated PPP [2]; 5 μM", "result": 208.6, "unit": "%"},
      {"measurement": "Δ % of Thrombin Time Prolongation Relative To Control + LPS", "setting": "LPS-treated PPP [2]; 10 μM", "result": 292.0, "unit": "%"},
      {"measurement": "prolongation of thrombin time relative to LPS-treated blood control", "setting": "LPS-treated PPP [2]; LPS-treated rabbit blood in vitro, 100 μM", "result": 14.0, "unit": "times"},
      {"measurement": "TT", "setting": "LPS-treated PPP [2]; rabbit blood treated with LPS in vitro, 100 μM", "result": "125.45 ± 1.54", "unit": "s"},
      {"measurement": "increase of thrombin time relative to intact control", "setting": "coagulograms of rats [3]; [15]", "result": 10.5, "unit": "times"},
      {"measurement": "TT", "setting": "coagulograms of rats [3]; [16]", "result": "603.9 ± 14.2", "unit": "s"},
      {"measurement": "effect on prothrombin time", "setting": "[4]", "result": "without changing the prothrombin time"},
      {"measurement": "PT", "setting": "[4]", "result": "14.20 ± 0.38", "unit": "s"},
      {"measurement": "increase of APTT relative to the control", "setting": "[5]", "result": 1.6, "unit": "times"},
      {"measurement": "APTT", "setting": "[5]", "result": "75.26 ± 2.61", "unit": "s"},
      {"measurement": "increase of thrombin time in relation to the LPS control group", "setting": "coagulograms of rats [6]; LPS-injected rats, dabigatran etexilate 12 mg/kg, 5d 5.5 mg/kg intragastric", "result": 12.8, "unit": "times"},
      {"measurement": "TT", "setting": "coagulograms of rats [6]; [14]", "result": "566.1 ± 11.5", "unit": "s"},
      {"measurement": "antithrombin effect under systemic inflammation reaction versus its absence", "setting": "coagulograms of rats [6]; rats, single intragastric administration", "result": "did not change"},
      {"measurement": "prolongation of APTT relative to LPS-treated blood", "setting": "LPS-treated PPP [7]; LPS-treated rabbit blood in vitro", "result": 2.3, "unit": "times"},
      {"measurement": "APTT", "setting": "LPS-treated PPP [7]; rabbit blood treated with LPS in vitro", "result": "135.13 ± 15.17", "unit": "s"},
      {"measurement": "effect on prothrombin time", "setting": "coagulograms of rats [8]", "result": "did not change"},
      {"measurement": "PT", "setting": "coagulograms of rats [8]; single intragastric dose, 2 h, dabigatran etexilate 12 mg/kg, 5d 5.5 mg/kg (equimolar)", "result": "31.2 ± 1.3", "unit": "s"},
      {"measurement": "Δ% of Thrombin Time Prolongation Relative to Control", "setting": "[9]; 0.1 μM, without LPS", "result": "1.4 ± 0.4", "unit": "%"},
      {"measurement": "Δ% of Thrombin Time Prolongation Relative to Control", "setting": "[9]; 1 μM, without LPS", "result": "42.3 ± 5.6", "unit": "%"},
      {"measurement": "Δ% of Thrombin Time Prolongation Relative to Control", "setting": "[9]; 1 μM, without LPS, listed as dabigatran etexilate", "result": 42.3, "unit": "%"},
      {"measurement": "Δ% of Thrombin Time Prolongation Relative to Control", "setting": "[9]; 5 μM, without LPS", "result": "176.1 ± 15.3", "unit": "%"},
      {"measurement": "Δ% of Thrombin Time Prolongation Relative to Control", "setting": "[9]; 5 μM, without LPS, listed as dabigatran etexilate", "result": 176.1, "unit": "%"},
      {"measurement": "thrombin time", "setting": "[9]; 10 μM, intact PPP", "result": 46.8, "unit": "s"},
      {"measurement": "Δ% of Thrombin Time Prolongation Relative to Control", "setting": "[9]; 10 μM, without LPS", "result": "302.0 ± 34.4", "unit": "%"},
      {"measurement": "Δ% of Thrombin Time Prolongation Relative to Control", "setting": "[9]; 10 μM, without LPS, listed as dabigatran etexilate", "result": 302.0, "unit": "%"},
      {"measurement": "increase of thrombin time relative to the control", "setting": "[9]; rabbit blood in vitro, 100 μM", "result": 6.0, "unit": "times"},
      {"measurement": "TT", "setting": "[9]; rabbit blood in vitro, 100 μM", "result": "70.23 ± 3.15", "unit": "s"},
      {"measurement": "EC50", "setting": "[9]; without LPS, concentration that prolongs clot formation time by 50%, read-out: EC50, μM (thrombin time prolongation)", "result": 1.4, "unit": "µM"},
      {"measurement": "PT", "setting": "LPS-treated PPP [10]", "result": "15.73 ± 0.20", "unit": "s"},
      {"measurement": "ecarin clotting time", "setting": "[11]; 1 μM", "result": 41.6, "unit": "s"},
      {"measurement": "ecarin clotting time", "setting": "[11]; 10 μM", "result": 54.1, "unit": "s"},
      {"measurement": "lengthening of ecarin clotting time compared to control", "setting": "[11]; 100 μM", "result": 2.3, "unit": "fold"},
      {"measurement": "EC50", "setting": "[11]; concentration range 100 to 1 μM", "result": 10.5, "unit": "µM"},
      {"measurement": "prolongation of APTT in relation to the LPS control group", "setting": "coagulograms of rats [12]; LPS-injected rats, 5d 5.5 mg/kg intragastric", "result": 2.2, "unit": "times"},
      {"measurement": "APTT", "setting": "coagulograms of rats [12]; rats with hypercytokinemia (LPS 2 mg/kg i.v.), single intragastric dose, 2 h, 5d 5.5 mg/kg", "result": "41.0 ± 2.0", "unit": "s"},
      {"measurement": "prolongation of APTT compared to the control", "setting": "coagulograms of rats [13]; [15]", "result": 3.6, "unit": "times"},
      {"measurement": "APTT", "setting": "coagulograms of rats [13]; [16]", "result": "137.5 ± 2.2", "unit": "s"}
    ]},
    {"smiles": "Nc1ccc(-c2cc(-c3ccc(N)cc3)n3ccnc3n2)cc1", "note": "[Compound 7a, 4,4′-(Imidazo[1,2-a]pyrimidine-5,7-diyl)dianiline]", "values": [
      {"measurement": "PT", "setting": "[4]", "result": "11.62 ± 1.00", "unit": "s"},
      {"measurement": "melting point", "result": "169 to 171", "unit": "°C"},
      {"measurement": "APTT", "setting": "[5]", "result": "56.23 ± 5.05", "unit": "s"},
      {"measurement": "anticoagulant activity / thrombin time prolongation compared with dabigatran etexilate", "setting": "[9]; rabbit blood in vitro, 100 μM", "result": "comparable to dabigatran etexilate in terms of activity"},
      {"measurement": "TT", "setting": "[9]; rabbit blood in vitro, 100 μM", "result": "66.58 ± 4.64", "unit": "s"}
    ]}
  ]
}
